Tested on: class I antigen presentation gene expression in MCC cell lines
Assay: RNA-seq / DESeq2 differential expression of MCC cell lines at baseline and after IFN-γ stimulation
Format: cell-based, human
Conditions: for log2FoldChange: 11 MCC cell lines, baseline vs IFNγ, negative LFC = upregulation in IFNγ-treated
Procedure: FIG. 2A comprises RNA-seq heatmaps of class I antigen presentation gene expression in MCC lines and controls.
FIG. 2B is a volcano plot of differentially expressed genes (genes below FDR cutoff 0.01 are shown in yellow) between baseline and IFN-γ-treated MCC cell lines. Differential expression analysis was performed using DESeq2, and negative LFC indicates increased expression in +IFN-γ samples. IFN genes are highlighted in red.
RNA samples were first assessed for quality using the Agilent Bioanalyzer (DV200 metric). One hundred ng of RNA were used as the input for first strand cDNA synthesis using Superscript III reverse transcriptase and Illumina's TruSeq RNA Access Sample Prep Kit. Synthesis of the second strand of cDNA was followed by indexed adapter ligation with UMI (unique molecular index) adaptors. Subsequent PCR amplification enriched for adapted fragments. Amplified libraries were quantified, normalized, pooled, and hybridized with exome targeting oligos. Following hybridization, bead clean-up, elution and PCR was performed to prepare library pools for sequencing on Illumina flowcell lanes. Transcriptomes were sequenced to a coverage of at least 50 million reads in pairs.
Raw fastq files for fibroblast and keratinocyte control lines were downloaded from SRA using R Bioconductor package SRAdb (Mayakonda et al. (2018) supra; Zhu et al. (2013) BMC Bioinformatics 14 (1): 1-4) using accession codes SRP126422 (4 replicates from control samples ‘NN’) and SRP131347 (6 replicates with condition: control and genotype: control). These fastq files, along with those for the mkl1 and waga cell lines, were aligned using STAR version 2.7.3a (Dobin et al. (2013) Bioinformatics 29 (1): 15-21), using index genome reference file downloaded from ftp.ebi.ac.uk/pub/databases/gencode/Gencode_human/release_19/GRCh37.p13.genome.fa.gz, transcript annotation file downloaded from data.broadinstitute.org/snowman/hg19/star/gencode.v19.annotation.gtf, and with the following options: --twopassMode Basic, --outSAMstrandField intronMotif, --alignIntronMax 1000000, --alignMatesGapMax 1000000, --sjdbScore 2, --outSAMtype BAM Unsorted, --outSAMattributes NH HI NM MD AS XS, --outFilterType BySJout, --outSAMunmapped Within, --genomeLoad NoSharedMemory, --outFilterScoreMinOverLread 0, --outFilterMatchNminOverLread 0, --outFilterMismatchNmax 999, and outFilterMultimapNmax 20. Duplicates were marked with picard MarkDuplicates version 2.22.0-SNAPSHOT.
RNA-sequencing bam files for MCC tumor and cell line samples were downloaded from the Broad Genomics Firecloud/Terra platform using the Google Cloud Storage command line tool gsutil version 4.5 (github.com/GoogleCloudPlatform/gsutil/).
Gene counts were obtained from bam files using featureCounts version 2.0.0 (doi.org/10.1093/bioinformatics/btt656). Very lowly expressed genes with average count across samples less than 1 were excluded from analysis. Between-sample distance metrics were computed using the Euclidean distance on the vectors of variance-stabilized counts obtained from the vst function in the DESeq2 R Bioconductor package ([…]; Love et al. (2014) Genome Biology 15 (12): 550).
Differential expression analysis was carried out between (1) viral positive and viral negative samples (adjusting for cell line or tumor as a covariate), (2) cell line and tumor samples (adjusting for viral status as a covariate), and (3) IFNγ plus and minus samples (adjusting for viral status as a covariate) using the negative binomial GLM Wald test of DESeq2, where significance was assessed using the p-values adjusted for multiple comparisons under default settings. To account for potential global gene expression differences among sample groups, RUVg (Risso et al. (2014) […] 32 (9): 896-902) was used to estimate latent factors of unwanted variation from the list of housekeeping genes downloaded from www.tau.ac.il/˜elieis/HKG/HK_genes.txt. […]

“IFN-y: type II interferon, recombinant human, used to treat MCC cells” gave a log2FoldChange (ENSG00000259321.1 (symbol NA)) of −2.031, a log2FoldChange (ENSG00000259529.1 (symbol NA)) of −0.9956 and a log2FoldChange (ENSG00000260929.1 (symbol NA)) of −3.413. It also gave a log2FoldChange (ENSG00000261644.1 (symbol NA)) of −3.585, a log2FoldChange (ENSG00000261690.1 (symbol NA)) of −3.339 and a log2FoldChange (ENSG00000261884.2 (symbol NA)) of −2.414. The log2FoldChange (ENSG00000262222.1 (symbol NA)) was −3.296, the log2FoldChange (ENSG00000262979.1 (symbol NA)) was −3.334 and the log2FoldChange (ENSG00000263013.1 (symbol NA)) was −1.286. The log2FoldChange (ENSG00000263120.1 (symbol NA)) was −1.445, the log2FoldChange (ENSG00000263179.1 (symbol NA)) was −3.474 and the log2FoldChange (ENSG00000269640.1 (symbol NA)) was −6.567. It also gave a log2FoldChange (ENSG00000271579.1 (symbol NA)) of −6.737, a log2FoldChange (ENSG00000273189.1 (symbol NA)) of −1.701 and a log2FoldChange (EPSTI1 ENSG00000133106.10) of −3.837. It also gave a log2FoldChange (FBXO7 ENSG00000100225.13) of −0.4101, a log2FoldChange (FBXO39 ENSG00000177294.6) of −6.492 and a log2FoldChange (FBXO47 ENSG00000204952.2) of −4.04. For the same substance, the log2FoldChange (FLT3LG ENSG00000090554.8) was −2.012, the log2FoldChange (HELZ2 ENSG00000130589.12) was −1.739 and the log2FoldChange (ICAM1 ENSG00000090339.4) was −6.633. For the same substance, the log2FoldChange (IFI27 ENSG00000165949.8) was −3.4, the log2FoldChange (IFI35 ENSG00000068079.3) was −6.454 and the log2FoldChange (IL12RB1 ENSG00000096996.11) was −4.561. The log2FoldChange (IRF8 ENSG00000140968.6) was −2.927, the log2FoldChange (IRF9 ENSG00000213928.4) was −2.537 and the log2FoldChange (ISG20 ENSG00000172183.10) was −2.416. For the same substance, the log2FoldChange (KRT39 ENSG00000196859.3) was −4.95, the log2FoldChange (LGALS3BP ENSG00000108679.8) was −1.502 and the log2FoldChange (LGALS9 ENSG00000168961.12) was −2.739. For the same substance, the log2FoldChange (LGALS17A ENSG00000226025.5) was −5.881, the log2FoldChange (LINC01993 ENSG00000204277.1) was −2.419 and the log2FoldChange (LOC254028 ENSG00000258573.1) was −5.436. For the same substance, the log2FoldChange (LOC100294362 ENSG00000263069.1) was 1.32, the log2FoldChange (LOC100996660 ENSG00000267248.1) was −0.6048 and the “HLA-A, -B, and -C mRNA” value (MCC-336, line non-IFN-responsive by flow cytometry) was “lack of IFN-induced HLA-A, -B, and -C mRNA upregulation”. It also gave a log2FoldChange (MIR762HG ENSG00000260083.1) of −0.6586, a log2FoldChange (MLKL ENSG00000168404.8) of −2.957 and a log2FoldChange (MT2A ENSG00000125148.6) of −1.532. For the same substance, the log2FoldChange (MVP ENSG00000013364.14) was −1.512, the log2FoldChange (MX2 ENSG00000183486.8) was −5.048 and the log2FoldChange (MXI ENSG00000157601.9) was −7.168. The log2FoldChange (NLRC5 ENSG00000140853.11) was −5.85, the log2FoldChange (NUCB1 ENSG00000104805.11) was −0.6283 and the log2FoldChange (OAS1 ENSG00000089127.8) was −4.621. It also gave a log2FoldChange (OAS2 ENSG00000111335.8) of −5.442, a log2FoldChange (OAS3 ENSG00000111331.8) of −2.277 and a log2FoldChange (OASL ENSG00000135114.8) of −6.129. The log2FoldChange (OGFR ENSG00000060491.12) was −1, the log2FoldChange (PARP4 ENSG00000102699.5) was −1.087 and the log2FoldChange (PATL2 ENSG00000229474.2) was −4.443. The log2FoldChange (PLK1 ENSG00000166851.10) was 0.5496, the log2FoldChange (PMAIP1 ENSG00000141682.11) was −0.9928 and the log2FoldChange (PML ENSG00000140464.15) was −1.421. For the same substance, the log2FoldChange (PSMA3 ENSG00000100567.8) was −0.4149, the log2FoldChange (PSMB10 ENSG00000205220.7) was −5.255 and the log2FoldChange (PSME1 ENSG00000092010.10) was −1.964. The log2FoldChange (PSME2 ENSG00000100911.9) was −1.919, the log2FoldChange (RAB2B ENSG00000129472.8) was −0.4425 and the log2FoldChange (RIN3 ENSG00000100599.11) was −2.337. For the same substance, the log2FoldChange (RNF31 ENSG00000092098.12) was −0.6387, the log2FoldChange (RNF213 ENSG00000173821.15) was −3.097 and the log2FoldChange (SAMHD1 ENSG00000101347.7) was −2.663. The log2FoldChange (SOCS1 ENSG00000185338.4) was −2.585, the log2FoldChange (SOCS3 ENSG00000184557.3) was −1.797 and the log2FoldChange (SPTLC3 ENSG00000172296.8) was −2.773. For the same substance, the log2FoldChange (STAT3 ENSG00000168610.10) was −0.9181, the log2FoldChange (TEKT5 ENSG00000153060.3) was −1.743 and the log2FoldChange (TRAFD1 ENSG00000135148.7) was −0.5883. It also gave a log2FoldChange (TRIM25 ENSG00000121060.10) of −1.048, a log2FoldChange (TRIM69 ENSG00000185880.8) of −2.829 and a log2FoldChange (USP18 ENSG00000184979.9) of −1.899. For the same substance, the log2FoldChange (USP30-AS1 ENSG00000256262.1) was −8.218, the log2FoldChange (VPS13C ENSG00000129003.11) was −0.9131 and the log2FoldChange (WARS ENSG00000140105.13) was −3.32. It also gave a log2FoldChange (WIPI1 ENSG00000070540.8) of −1.205, a log2FoldChange (XAFI ENSG00000132530.12) of −11.47 and a log2FoldChange (ZBP1 ENSG00000124256.10) of −5.347. It also gave a log2FoldChange (ZNFX1 ENSG00000124201.10) of −1.109.
